Blank lines part the entries; values can stand above or below the molecule they belong to.
Columns and labels:
TRIM25 PRYSPRY [1] = biological target: T1, TRIM25 PRYSPRY (Homo sapiens, UniProt Q14258); assay: Kinetic characterisation of covalent labelling by intact protein LCMS (kinact/KI); assay type: binding; conditions: TRIM25 PRYSPRY 0.5 μM, 4 °C
T1 construct: His6-TEV (cleaved yes); made in house; host or cells: Sf9 insect cells (baculovirus)
Experimental: 8 were characterised by kinetic reaction monitoring by intact protein LCMS. 0.5 µM
10 dilution series (final compound concentrations 100 µM (only for fragments 1 – 8),
12 and 1% DMSO-only control also used). Assays were performed in technical duplicates
Protein and compounds were incubated at 4 °C, in 25 mM HEPES
15 pH 7.5, 50 mM NaCl buffer, with each timepoint and replicate in a separate well.
18 measurement were saved with each reading and used for kinetic calculations.
19 protein masses were recorded, deconvoluted and percentage labelling values
20 extracted in the same way as described above. Percentage labelling values were
21 plotted against time in Prism 10 (GraphPad), and curves fitted separately for each
22 replicate to a one-phase association model with constraints Y0 = 0, and plateau = 100.
23 Observed rate constants (k obs, h-1, generated in Prism 10 as K values) were then
26 of two or three replicates to a straight line model with constraint Y-intercept = 0.
27 gradient of these plots (converted from µM-1h-1 to M-1s-1) gives the pseudo-first order
28 rate parameter, kinact/K I (M-1s-1), for each compound. kinact/KI values are reported as
29 mean ± SD of the slope based on a linear fit model, n = 2 or 3. For n = 2 data, errors
30 are reported as standard errors of fit, as calculated in Prism 10. For n = 3 data, errors […]

TRIM25 PRYSPRY [2] = biological target: T1, TRIM25 PRYSPRY; assay: Intact protein LCMS covalent labelling of recombinant TRIM25 PRYSPRY; assay type: binding; conditions: 4 °C, 24 h
Experimental: 1 resin (ThermoFisher Scientific, 89964), eluted in 100 mM HEPES pH 7, 500 mM NaCl,
2 300 mM Imidazole, 5% glycerol, 1 mM TCEP, and stored at -80 °C.
5 into a pET49 vector with a His6-HRV-3C (Human Rhinovirus) tag and expressed in
6 BL21 E.coli cells (Agilent Technologies; 230132), with induction at 18 °C overnight by
7 addition of isopropyl β-D-1-thiogalactopyranoside (0.5 mM). Cells were harvested by
8 centrifugation at 4000 rpm in a Beckman J6-M1 rotor for 30 min at 4 °C, the
9 supernatant was discarded and cell pellets were either immediately lysed, or stored at
10 -80°C. The protein was purified via His6-capture on HisPurTM Ni-NTA resin in buffer
11 50 mM HEPES pH 7.5, 300 mM NaCl, 0.5 mM TCEP, 20 mM imidazole, washed
12 extensively with both high salt buffer (50 mM HEPES pH 7.5, 1 M NaCl, 0.5 mM TCEP,
13 20 mM imidazole) and wash buffer (50 mM HEPES pH 7.5, 300 mM NaCl, 0.5 mM
14 TCEP, 20 mM imidazole) before elution in buffer 50 mM HEPES pH 7.5, 300 mM NaCl,
15 0.5 mM TCEP, 500 mM imidazole, and tag cleavage with HRV-3C protease. Cleaved
16 protein was further purified by ion exchange chromatography and size exclusion
17 chromatography into 20 mM HEPES pH 7.5, 150 mM NaCl, 0.5 mM TCEP, and stored
21 For the original chloroacetamide fragment screen, 0.25 μM TRIM25 PRYSPRY or
23 25 mM HEPES pH 7.5, 50 mM NaCl buffer. For intact protein liquid chromatography
24 mass spectrometry (LCMS) kinetic characterisation, 0.5 μM TRIM25 PRYSPRY was
25 used. For selectivity testing with recombinant ubiquitin system protein panel, 10 µM
27 7.5, 50 mM NaCl buffer. Samples were then diluted to 0.5 µM for TRIM25 PRYSPRY,
28 TRIM21 PRYSPRY, OTUD7B OTU, ZRANB1 OTU or 1 µM for TRIM2 NHL, UBCH5B,
29 UBC13K92A, UEV1A, OTUD4 OTU, before injection into the LCMS. For TRIM25
30 PRYSPRY mutants, and for labelling of heterobifunctional compounds, 10 µM protein
32 mM NaCl buffer, and samples were diluted to 1 µM protein before injection into the […]

[3] = buffer; cited from earlier work
[4] = fragment screen: fragment 50 μM, TRIM25 PRYSPRY […]

T1 sequence (Q14258 435-630): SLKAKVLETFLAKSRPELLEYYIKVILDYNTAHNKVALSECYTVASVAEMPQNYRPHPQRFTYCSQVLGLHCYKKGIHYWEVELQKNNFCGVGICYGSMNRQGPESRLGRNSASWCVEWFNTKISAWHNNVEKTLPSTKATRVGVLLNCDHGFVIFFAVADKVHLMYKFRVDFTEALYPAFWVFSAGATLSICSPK

Compound: NC(=O)C1CCCCN1C(=O)CCl (stereo not shown) [Fragment 3]
- kinact/KI (TRIM25 PRYSPRY [1]; eight timepoints across 24 h, n = 2, mean ± SE of fit): 0.13 ± 0.01 M⁻¹ s⁻¹
- TRIM25 PRYSPRY labelling (%) (TRIM25 PRYSPRY [2]; [4]): 39%

Compound: CCN1C(=O)C2CN(C(=O)CCl)CCN2C1=O (stereo not shown) [Fragment 2]
- TRIM25 PRYSPRY labelling (%) (TRIM25 PRYSPRY [2]; [4]): 50%

Compound: C=CC(=O)Nc1cc(Nc2nccc(-c3cn(C)c4ccccc34)n2)c(OC)cc1N(C)CCN(C)C [osimertinib]
- GSH t1/2 [3]: 1.3 h

The remaining lines, values ahead:

- TRIM25 PRYSPRY labelling (%) (TRIM25 PRYSPRY [2]; [4]): 55%
Compound: O=C(CCl)N1CCCN(C(=O)c2ccc(Cl)cc2)CC1 [Fragment 1]

- kinact/KI (TRIM25 PRYSPRY [1]; purified compounds, mean ± SD, n = 3): 0.26 ± 0.01 M⁻¹ s⁻¹
- TRIM25 PRYSPRY labelling (%) (TRIM25 PRYSPRY [2]; purified compound 50 μM, TRIM25 PRYSPRY 10 μM): 51%
Compound: N#Cc1cnccc1NC(=O)C1CCCN(C(=O)CCl)C1 (stereo not shown) [Compound 12]

Source: publication PMC12067093, “Discovery and optimisation of a covalent ligand for TRIM25 and its application to targeted protein ubiquitination” (Chemical Science, 2025)
